Measurements: US9244073B2, “Assays for detecting enzymatic activity” (Wellstat Diagnostics, LLC, priority 2011, dated 2016)

Key:
[1] = test system: bovine FX; assay: Detecting plasma FIX activity by detecting FXa activity using an immunoassay (ECL); assay type: biochemical; conditions: diluted reference plasma
Experimental: A FIX activity calibrator curve was set up in a 96-well U bottom microtiter plate, which was equilibrated to 37° C. in an incubator. All coagulating factor reagents were from Haematologic Technologies, Inc. ((HTI), Essex Junction, Vt.), unless specifically noted. To 50 μL of a factor reagent containing 1.6 nM bovine FXIa (Cat: HCX1A-0160), 0.0681 nM bovine α-thrombin (Cat: BCT-1020), 24.5 nM bovine FX (BCX-1050), […] FVIII (Cat: PRO-318, PROSPEC, Rehovot, Israel), 100 μM phosphorliposome (80% phosphatidylcholine and 20% phosphatidylserine) and 0.75 mM Gly-Pro-Arg-Pro amide (Cat: GPRP-NH2. Sigma, St. Louis; SEQ ID NO:32), 25 μL of a diluted reference plasma (HEMOSIL™ Calibration Plasma, Cat: 0020003700, Diapharma Group Inc., Columbus, Ohio) containing 24.4, 8.13, 2.71, 0.904, 0.301, 0.100 and 0.0335 mU/mL of FIX in the assay buffer (Example 4) were added, mixed and incubated for exactly 10 minutes in a hot plate set at 37° C. After the incubation, to the 75 μL of assay mixture, 50 μL of a master mix of FXa detection reagent (Example 4), containing 200 μg/mL of M280-SA beads, 600 ng/mL of a peptide (peptide sequence III), 1000 ng/mL of TAG Plus anti-FLAG® M1 antibody (Example 2), and 30 μg/mL I-2581 (synthetic thrombin inhibitor, cat: 82110810, DiaPharma Group Inc. West Chester, Ohio 45069) in assay buffer (Example 4) was added and incubated for a final 20 minutes at 37° C. After the incubation, the beads were washed once in 150 μL of a PBS-based buffer solution (Example 3) and were resuspended in 150 μL of the same buffer before beads were read in a M1MR analyzer (BioVeris).

[2] = test system: bovine factor Xa; assay: Detecting heparin activity with an ECL-based FXa activity immunoassay (with human antithrombin); assay type: biochemical
Experimental: A heparin activity calibrator curve was set up in a 96-well U bottom microtiter plate, which was equilibrated to 37° C. in an incubator. To each well, 25 μL of 100, 50, 25, 12.5, 6.25 and 3.13 mIU/mL heparin prepared from a heparin sodium Salt (Cat: H4784-2500MG, Sigma, St. Louis) and 25 μL of 1.0 IU/mL human antithrombin (from kit of BIOPHEN Heparin Anti-Xa, Ref: 221010, Aniara Diagnostica LLC, Columbus, Ohio) were added and incubated for 2 minutes at 37° C. Then to the mixture, 25 μL of 8.0 μg/mL bovine factor Xa (from kit of BIOPHEN Heparin Anti-Xa, Ref: 221010, Aniara Diagnostica LLC, Columbus, Ohio) was added, followed immediately with 25 μL of a master mix of FXa detection reagent containing 400 μg/mL of M280-SA beads, 1.2 μg/mL of a peptide (peptide sequence V), 2.0 μg/mL of TAG Plus anti-FLAG® M1 antibody (Example 2) and 25 mM CaCl2. The subsequent mixture was incubated for a final 20 minutes at 37° C. After the incubation, the beads were washed once in 150 μL of the PBS-based buffer solution (Example 3) and were resuspended in 150 μL of the same buffer before beads were read in a M1MR Analyzer (BioVeris).

bovine factor Xa, sequence (P01008 33-464): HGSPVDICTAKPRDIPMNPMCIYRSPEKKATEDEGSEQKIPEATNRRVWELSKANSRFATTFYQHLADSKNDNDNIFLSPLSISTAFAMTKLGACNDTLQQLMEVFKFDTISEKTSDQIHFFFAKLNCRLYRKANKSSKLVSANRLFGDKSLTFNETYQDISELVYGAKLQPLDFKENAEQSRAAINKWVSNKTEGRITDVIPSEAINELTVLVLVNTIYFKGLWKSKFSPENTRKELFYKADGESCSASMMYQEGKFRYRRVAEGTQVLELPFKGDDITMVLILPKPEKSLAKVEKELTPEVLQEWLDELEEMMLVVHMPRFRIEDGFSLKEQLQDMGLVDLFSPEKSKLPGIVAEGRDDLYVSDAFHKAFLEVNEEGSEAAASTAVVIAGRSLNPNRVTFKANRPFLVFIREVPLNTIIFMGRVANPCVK

Question: Which “Mean Signal” value ([1]; FIX 0.0335 mU/mL) does the source give for “FIX: FIX in diluted reference plasma (HEMOSIL Calibration Plasma)” here?
Answer: Its value is 3665.

Question: And the Signal/Background ([1]; FIX 0.0335 mU/mL)?
Answer: Its Signal/Background is 1.1.

Question: And the “Mean Signal” value ([1]; FIX 0.100 mU/mL)?
Answer: The value was 4050.

Question: And the Signal/Background ([1]; FIX 0.100 mU/mL)?
Answer: The Signal/Background was 1.2.

Question: And the “Mean Signal” value ([1]; FIX 0.301 mU/mL)?
Answer: Its value is 5626.

Question: What about the Signal/Background ([1]; FIX 0.301 mU/mL) of the same substance?
Answer: The Signal/Background was 1.6.

Question: And the “Mean Signal” value ([1]; FIX 0.904 mU/mL)?
Answer: Its value is 8707.

Question: What about the Signal/Background ([1]; FIX 0.904 mU/mL) of the same substance?
Answer: Its Signal/Background is 2.5.

Question: And the “Mean Signal” value ([1]; FIX 2.71 mU/mL)?
Answer: The value was 16884.

Question: And the Signal/Background ([1]; FIX 2.71 mU/mL)?
Answer: The Signal/Background was 4.9.

Question: What about the “Mean Signal” value ([1]; FIX 8.13 mU/mL) of the same substance?
Answer: Its value is 30879.

Question: What about the Signal/Background ([1]; FIX 8.13 mU/mL) of the same substance?
Answer: The Signal/Background was 9.0.

Question: What about the “Mean Signal” value ([1]; FIX 24.4 mU/mL) of the same substance?
Answer: Its value is 40234.

Question: And the Signal/Background ([1]; FIX 24.4 mU/mL)?
Answer: The Signal/Background was 11.7.

Question: Which results are given for heparin sodium Salt?
Answer: % Signal Decrease ([2]; Heparin 3.13 mIU/mL): −19%; Mean Signal ([2]; Heparin 3.13 mIU/mL): 81999; % Signal Decrease ([2]; Heparin 6.25 mIU/mL): −38%; Mean Signal ([2]; Heparin 6.25 mIU/mL): 62502; % Signal Decrease ([2]; Heparin 12.5 mIU/mL): −60%; Mean Signal ([2]; Heparin 12.5 mIU/mL): 40868; % Signal Decrease ([2]; Heparin 25.0 mIU/mL): −81%; Mean Signal ([2]; Heparin 25.0 mIU/mL): 19648; % Signal Decrease ([2]; Heparin 50.0 mIU/mL): −93%; Mean Signal ([2]; Heparin 50.0 mIU/mL): 7203; % Signal Decrease ([2]; Heparin 100 mIU/mL): −97%; Mean Signal ([2]; Heparin 100 mIU/mL): 3322
